These are literature values, as cited in patent US4794170A (priority 1984, dated 1988).

The subject of one data set is virus B. The following applies: chronical hepatitis induced by virus B.
In the next data set the test system is hepatocytes. Conditions: mouse.

As for `Nc1ncnc2c1ncn2[C@@H]1O[C@H](CO)[C@@H](O)[C@@H]1O` [ara-A, adenine-9-beta-D-arabinoside], the virus replication result in the data set on virus B is reported as “inhibit the virus replication”.
On to `Nc1ncnc2c1ncn2[C@@H]1O[C@H](COP(=O)(O)O)[C@@H](O)[C@@H]1O` [ara-AMP, adenine-9-beta-D-arabinofuranoside 5'monophosphate], for which, in the data set on virus B, the virus replication result was “inhibit the virus replication”.
As to “ara-A-glut-AF: ara-A glutarate bonded to the asialofetuine (AF) through its hydroxysuccinimidic ester”, the “hepatic targeting of ara-A” value in the data set with hepatocytes is “pharmacologically active in producing in the mouse a hepatic targeting of ara-A”.
